Measurements: paper PMC6359172, “Symmetrical Heterocyclic Cage Skeleton: Synthesis, Urease Inhibition Activity, Kinetic Mechanistic Insight, and Molecular Docking Analyses” (Molecules, 2019)
Read-outs that look alike come from different tables or passages of the source.

Biological target: T1, jack bean urease (Canavalia ensiformis, UniProt P07374)
T1 construct: purchased Sigma (St. Louis, MO, USA)
Test: biochemical
Procedure: The urease activity was determined by measuring the amount of ammonia produced with the indophenols method previously described. The reaction mixtures, comprising 20 µL of enzyme (jack bean urease, 5 U/mL) and 20 μL of test compounds in 50 μL buffer (100 mM urea, 0.01 M K2HPO4, 1 mM EDTA, and 0.01 M […], pH 8.2), were incubated for 30 min at 37 °C in a 96-well plate. Briefly, 50 μL each of phenol reagents (1%, w/v phenol and 0.005%, w/v sodium nitroprusside) and 50 μL of alkali reagent (0.5%, w/v NaOH and 0.1% active chloride NaOCl) were added to each well. The absorbance at 625 nm was measured after 10 min, using a microplate reader (OPTI Max, Tunable). All reactions were performed in triplicate. The urease inhibition activities were calculated according to the following formula:Urease inhibition activity (%) = (ODcontrol − ODsample × 100)/ODcontrol where ODcontrol and ODsample represents the optical densities in the absence and presence of the sample, respectively. Thiourea was used as the standard inhibitor for urease.

T1 sequence (P07374 whole entry, looked up): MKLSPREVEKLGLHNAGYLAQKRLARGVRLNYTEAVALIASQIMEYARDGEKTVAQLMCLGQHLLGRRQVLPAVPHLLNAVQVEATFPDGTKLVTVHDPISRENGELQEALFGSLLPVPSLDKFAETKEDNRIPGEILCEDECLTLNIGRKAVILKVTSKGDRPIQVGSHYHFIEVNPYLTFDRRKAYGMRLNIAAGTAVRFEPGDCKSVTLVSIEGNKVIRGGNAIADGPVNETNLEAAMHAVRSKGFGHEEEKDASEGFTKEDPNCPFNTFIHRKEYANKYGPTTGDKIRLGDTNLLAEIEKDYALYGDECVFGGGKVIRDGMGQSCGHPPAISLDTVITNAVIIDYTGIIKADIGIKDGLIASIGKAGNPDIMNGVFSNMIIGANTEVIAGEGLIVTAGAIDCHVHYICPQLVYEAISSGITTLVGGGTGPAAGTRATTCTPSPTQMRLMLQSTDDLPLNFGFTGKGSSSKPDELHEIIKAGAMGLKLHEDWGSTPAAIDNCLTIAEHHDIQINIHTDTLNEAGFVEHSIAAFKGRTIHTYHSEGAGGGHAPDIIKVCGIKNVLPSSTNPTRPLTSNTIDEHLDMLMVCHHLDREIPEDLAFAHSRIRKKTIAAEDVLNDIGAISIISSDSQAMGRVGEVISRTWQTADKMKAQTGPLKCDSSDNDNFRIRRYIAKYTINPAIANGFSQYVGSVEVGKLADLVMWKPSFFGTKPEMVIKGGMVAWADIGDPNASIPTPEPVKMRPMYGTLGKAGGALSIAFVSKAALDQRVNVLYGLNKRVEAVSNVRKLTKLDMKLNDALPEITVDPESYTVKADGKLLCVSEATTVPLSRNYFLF

Row | Compound | IC50 [µM] | IC50 (jack bean urease 5 U/mL, 100 mM urea, pH 8.2, 30 min 37 °C, read-out: Urease Inhibition IC50) [µM]
1 | COc1ccc(-c2n[nH]c(=O)n2/N=C/c2cccc(/C=N/n3c(-c4ccc(OC)cc4)n[nH]c3=O)n2)cc1 [Compound 3] | 18.9 ± 1.81 | 
2 | COc1ccc(-c2n[nH]c(=S)n2/N=C/c2cccc(/C=N/n3c(-c4ccc(OC)cc4)n[nH]c3=S)n2)cc1 [Compound 4] | 29.3 ± 3.32 | 
3 | NC(N)=S [Thio-Urea, Thiourea, reference compound] |  | 20.7 ± 0.45
